Here are results for six molecules from ChEMBL document CHEMBL1126901, “2-Thio derivatives of dUrd and 5-fluoro-dUrd and their 5'-monophosphates: synthesis, interaction with tumor thymidylate synthase, and in vitro antitumor activity” (J Med Chem, 1993).

Assay [1] has as its system NIH3T3. Description: Inhibitory concentration of compound rwas calculated on 3T3 cells by [3H]Thd incorporation. Format: functional, cell-based, Mus musculus.
Assay [2] concerns NIH3T3. Description: Inhibitory concentration of compound was calculated on 3T3 cells by [14C]Leu incorporation. In kind it is functional, cell-based, Mus musculus.
Assay [3] has as its system NIH3T3. Description: Inhibitory concentration of compound was calculated on 3T3 cells by using clonal assay. In kind it is functional, cell-based, Mus musculus.
Assay [4] deals with NIH3T3. Description: Inhibitory concentration was calculated on 3T3 cells by using growth assay. In kind it is functional, cell-based, Mus musculus.
The test system of assay [5] is L5178Y. Description: Inhibitory concentration of compound was calculated on L5178Y cells by [14C]Leu incorporation. In kind it is functional, cell-based, Mus musculus.
The subject of assay [6] is L5178Y. The experiment in a line: Inhibitory concentration of compound was calculated on L5178Y cells by using clonal assay. Format: functional, cell-based, Mus musculus.
Assay [7] concerns L5178Y. The experiment in a line: Inhibitory concentration of compound was calculated on L5178Y cells by using growth assay. Format: functional, cell-based, Mus musculus.
In assay [8] the test system is L5178Y. Description: Inhibitory concentration of compound rwas calculated on L5178Y cells by [3H]Thd incorporation. Format: functional, cell-based, Mus musculus.
The target in assay [9] is T1, Thymidylate synthase (Mus musculus, UniProt P07607). The experiment in a line: Apparent Ki value was measured by competitive inhibition of Thymidylate Synthase from Ehrlich Carcinoma cells of mouse. In kind it is cell-based.
T1 sequence (P07607 whole entry): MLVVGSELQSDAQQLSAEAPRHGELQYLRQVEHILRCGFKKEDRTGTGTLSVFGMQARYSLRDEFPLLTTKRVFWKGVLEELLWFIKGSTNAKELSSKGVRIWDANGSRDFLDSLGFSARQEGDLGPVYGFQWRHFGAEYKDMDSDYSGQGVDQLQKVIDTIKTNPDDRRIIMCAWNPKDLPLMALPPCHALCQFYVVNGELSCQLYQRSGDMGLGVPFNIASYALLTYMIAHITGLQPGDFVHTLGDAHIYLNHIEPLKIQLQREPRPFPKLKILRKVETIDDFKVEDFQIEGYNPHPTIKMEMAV
Assay [10] concerns the target T1, Thymidylate synthase. Description: Apparent Ki value was measured by competitive inhibition of Thymidylate Synthase from L1210 cells of mouse. In kind it is cell-based.
The target in assay [11] is Thymidylate synthase (Mus musculus) (UniProt P07607).
Thymidylate synthase (Mus musculus), sequence (P07607 whole entry, looked up): as the sequence (P07607 whole entry) above
Description: The time dependent reaction (k2'(1/min)) of compound was measured for inactivation of L1210 Thymidylate Synthase
Assay [12] has the same target. This is another data set of the same source.
Description: The time dependent reaction (k2''(1/min)) of compound was measured for inactivation of Ehrlich Carcinoma Thymidylate Synthases
For assay [13] the target is unchanged. This is another data set of the same source.
Description: The time dependent reaction (k2''(1/min)) of compound was measured for inactivation of Ehrlich Carcinoma Thymidylate Synthase
Assay [14] has the same target. This is another data set of the same source.
Description: The time dependent reaction (k2''(1/min)) of compound was measured for inactivation of L1210 Thymidylate Synthase
For assay [15] the target is unchanged. The source holds these as a separate data set.
Description: The reaction rate(Ki'') of compound was measured for inactivation of Ehrlich Carcinoma Thymidylate Synthases
For assay [16] the target is unchanged. The source holds these as a separate data set.
Description: The reaction rate(Ki'') of compound was measured for inactivation of L1210 Thymidylate Synthase
For assay [17] the target is unchanged. The source holds these as a separate data set.
Description: The reaction rate(Ki') of compound was measured for inactivation of Ehrlich Carcinoma Thymidylate Synthases
For assay [18] the target is unchanged. This is another data set of the same source.
Description: The reaction rate(Ki') of compound was measured for inactivation of L1210 Thymidylate Synthase
Assay [19] shares this target. The source holds these as a separate data set.
Description: The reaction rate(Ki'') of compound was measured for inactivation of L1210 Thymidylate Synthases
Assay [20] has the same target. This is another data set of the same source.
Description: The time dependent reaction (k2''(1/min)) of compound was measured for inactivation of L1210 Thymidylate Synthases
Assay [21] has the same target. The source holds these as a separate data set.
Description: The time dependent reaction (k2'(1/min)) of compound was measured for inactivation of Ehrlich Carcinoma Thymidylate Synthases
The target is the same in assay [22]. This is another data set of the same source.
Description: The time dependent reaction (k2'(1/min)) of compound was measured for inactivation of L1210 Thymidylate Synthases
The target is the same in assay [23]. This is another data set of the same source.
Description: The reaction rate(Ki') of compound was measured for inactivation of L1210 Thymidylate Synthases

Usually IC50 stands for the midpoint of a concentration-inhibition curve. As for `O=c1[nH]c(=S)n([C@@H]2C[C@H](O)[C@@H](CO)O2)cc1F`, the IC50 in the assay on NIH3T3 [1] (Mus musculus, NIH3T3) is 100 µM; with NIH3T3 [2] (Mus musculus, NIH3T3), 2000 µM; with NIH3T3 [3] (Mus musculus, NIH3T3) it was 500 µM; in the assay on NIH3T3 [4] (Mus musculus, NIH3T3), 400 µM; in the assay on L5178Y [5] (Mus musculus, L5178Y), 10 µM; with L5178Y [6] (Mus musculus, L5178Y) it was 20 µM. In addition, the IC50 in the assay on L5178Y [7] (Mus musculus, L5178Y) was 25 µM; in the assay on L5178Y [8] (Mus musculus, L5178Y), 10 µM.
As to `O=c1[nH]c(=S)n(C2C[C@@H](OP(=O)(O)O)[C@@H](COP(=O)(O)O)O2)cc1F` (stereo not given in full), the Ki on Thymidylate synthase [9] stood at 0.14 µM; on Thymidylate synthase [10], 0.07 µM. The values for the k2' in assay [11] and in assay [12] were 0.12 min⁻¹ and 0.36 min⁻¹, respectively. Also, the k2'' was found to be 0.06 min⁻¹ in assay [13] and 0.02 min⁻¹ in assay [14]. Also, the Ki'' in [15] came to 0.049 µM; in assay [16], 0.046 µM. The figures for the Ki' in [17] and in assay [18] were 0.079 µM and 0.041 µM, respectively.
In the case of `O=c1[nH]c(=O)n([C@H]2C[C@H](O)[C@@H](CO)O2)cc1F` (stereo in doubt) [FLOXURIDINE], the IC50 in the assay on NIH3T3 [1] (nih3t3) is 0.5 µM; in the assay on NIH3T3 [2] (nih3t3), 3.2 µM; in the assay with NIH3T3 [3] (nih3t3), 0.6 µM; with NIH3T3 [4] (nih3t3), 1 µM; in the assay on L5178Y [5] (l5178y), 0.009 µM; in the assay on L5178Y [6] (l5178y), 0.02 µM. Moreover, the IC50 in the assay on L5178Y [7] (l5178y) is 0.025 µM; in the assay on L5178Y [8] (l5178y), 0.015 µM.
As for `O=c1[nH]c(=O)n([C@H]2C[C@H](O)[C@@H](CO)O2)cc1F` (stereo in doubt; 22) [FLOXURIDINE], the IC50 in the assay with NIH3T3 [1] (nih3t3) is 60 µM; with NIH3T3 [2] (nih3t3), 250 µM; in the assay on NIH3T3 [3] (nih3t3), 60 µM; in the assay with NIH3T3 [4] (nih3t3) it was 150 µM; in the assay on L5178Y [5] (l5178y), 2 µM; in the assay on L5178Y [6] (l5178y), 5 µM. The IC50 in the assay on L5178Y [7] (l5178y) is 5 µM; in the assay on L5178Y [8] (l5178y), 4 µM.
Consider `O=c1[nH]c(=S)n([C@H]2C[C@H](O)[C@@H](CO)O2)cc1F`, for which the IC50 in the assay on NIH3T3 [1] (Mus musculus, NIH3T3) was 4 µM; in the assay on NIH3T3 [2] (Mus musculus, NIH3T3), 5 µM; in the assay with NIH3T3 [3] (Mus musculus, NIH3T3), 7 µM; in the assay with NIH3T3 [4] (Mus musculus, NIH3T3), 4 µM; with L5178Y [5] (Mus musculus, L5178Y), 1 µM; with L5178Y [6] (Mus musculus, L5178Y) it was 4.5 µM. Moreover, the IC50 is 2 µM with L5178Y [7] (Mus musculus, L5178Y) and 1.4 µM in the assay with L5178Y [8] (Mus musculus, L5178Y).
Regarding `O=c1[nH]c(=O)n([C@H]2C[C@H](O)[C@@H](COP(=O)(O)O)O2)cc1F`, the Ki'' worked out at 0.02 µM in assay [19] and 0.071 µM in [15]. Besides, the k2' in [12] worked out at 0.18 min⁻¹; in [20], 0.17 min⁻¹. Also, the k2'' in [21] was determined as 0.17 min⁻¹; in assay [22] it was 0.12 min⁻¹. Also, the figures for the Ki' in [17] and in assay [23] were 0.0055 µM and 0.0018 µM, respectively.
